From patent US11230542B2, “Inhibitors of integrated stress response pathway” (Praxis Biotech LLC, priority 2017, dated 2022)
Read-outs that look alike come from different tables or passages of the source.

What was measured:
[1] = test system: ATF4; assay: ATF4 expression inhibition assay (thapsigargin-stressed HEK293T cells, western blot); assay type: cell-based; settings: Homo sapiens, HEK-293T; for IC50: 3 h with 100 nM Tg, test compound 1 nM to 1 μM; for inhibition at 0.1 µM: 3 h with 100 nM thapsigargin (Tg) and 100 nM test compound; for inhibition at 0.1 µM / inhibition at 1 µM: Tg alone 0%, untreated 100%; for inhibition at 1 µM: 3 h with 100 nM thapsigargin (Tg) and 1 μM test compound
Experimental: HEK293T cells were maintained at 37° C. and 5% CO2 in Dulbecco's Modified Eagle's Media (DMEM) supplemented with 10% fetal bovine serum (FBS), 2 mM L-glutamine, 100 U/ml penicillin, and 100 μg/ml streptomycin. […] Cells without treatment or cells treated with Tg alone were used as controls.
After 3 hours of treatment with Tg and the test compound, cells were lysed with SDS-PAGE lysis buffer. Lysates were transferred to 1.5 ml tubes and sonicated for 3 min, and total protein amounts were quantified using BCA Protein Assay Kit (Pierce). Equal amount of proteins were loaded on SDS-PAGE gels. Proteins were transferred onto 0.2 μm PVDF membranes (BioRad) and probed with primary antibodies diluted in Tris-buffered saline supplemented with 0.1% Tween 20 and 3% bovine serum albumin.
(§1) ATF4 (11815) antibody was used as primary antibody (Cell Signaling Technologies). A horseradish peroxidase (HRP)-conjugated secondary antibody (Rockland) was employed to detect immune-reactive bands using enhanced chemiluminescence (ECL Western Blotting Substrate, Pierce). Quantification of protein bands was done by densitometry using ImageJ.
Percentages of ATF4 inhibition after induction with Tg in the presence of 100 nM or 1 μM of certain test compounds are shown in Table 2 and FIG. 1. Percentage of ATF4 inhibition was calculated as the percent reduction normalized to Tg treatment (0% inhibition) and untreated cells (100% inhibition). Also shown in Table 2 is the calculated IC50 for the test compounds. […] Accordingly, inhibition of ATF4 expression as a result of the test compound indicates suppression of the ISR pathway.

[2] = test system: CHO cells; assay: Protein translation assay (puromycin incorporation in CHO cells, unstressed or Tg-stressed); assay type: cell-based, Chinese hamster; settings: for activity at 0.1 µM / activity at 1 µM: Cricetulus griseus, media alone 100%; for activity at 0.1 µM: read-out: % Recovery of protein expression (100 nM test compound)
Experimental: CHO cells were maintained at 37° C. and 5% CO2 in DMEM supplemented with 10% fetal bovine serum (FBS), 2 mM L-glutamine, 100 U/ml penicillin, and 100 μg/ml streptomycin. After reaching 80% of confluence, cells were detached and seeded on 6 well plates in complete media, allowed to recover overnight and treated for 2 hours with 1 μM of the test compound (to assess protein synthesis levels in unstressed condition), or for 1 hour with 100 nM and 1 μM of the test compound and then co-treated with 300 nM Tg and 100 nM and 1 μM of the test compound (to assess the recovery of protein synthesis in a stressed condition). Cells treated with Tg alone were used as controls.
After the 2 hours treatments, media were replaced by adding 10 μg/ml puromycin (Sigma Aldrich) in complete media for 30 min. Media were removed and cells were lysed with SDS-PAGE lysis buffer. Lysates were transferred to 1.5 ml tubes and sonicated for 3 minutes and total protein amount were quantified using BCA Protein Assay Kit (Pierce). Equal amount of protein (30 μg) was loaded on SDS-PAGE gels. Proteins were transferred onto 0.2 μm PVDF membranes (BioRad) and probed with primary antibodies diluted in Tris-buffered saline supplemented with 0.1% Tween 20 and 3% bovine serum albumin.
as §1, with “Puromycin (12D10)” for “ATF4 (11815)”, “(Merck Millipore).” for “(Cell Signaling Technologies).”, “HRP-conjugated” for “horseradish peroxidase (HRP)-conjugated”
Percent increase of protein synthesis in unstressed cells (without Tg treatment) in the presence of media alone or certain test compounds is shown in Table 3 and FIG. 2. The percentage levels were normalized to the media alone condition, which correspond to 100% protein synthesis.
Percent recovery of protein synthesis in stressed cells (with Tg treatment) due to the test compounds at 100 nM or 1 μM is shown in FIGS. 3A and 3B, respectively, and in Table 3. The levels were normalized to the media alone and to Tg alone conditions, which correspond to 100% and 0% respectively.

[3] = CHO cells stressed with 300 nM Tg, Tg alone 0%
[4] = CHO cells stressed with 300 nM Tg, Tg alone 0%, read-out: % Recovery of protein expression (1 μM test compound)
[5] = unstressed CHO cells, 2 h, read-out: % Protein expression relative to untreated (1 μM test compound)

`O=C(COc1ccc(Cl)c(F)c1)N[C@H]1CC[C@H](NC(=O)c2ccc3cc(Cl)ccc3c2)CC1` [Compound 145, trans-6-chloro-N-(4-(2-(4-chloro-3-fluorophenoxy)acetamido)cyclohexyl)-2-naphthamide] was tested, and the IC50 [1] was 17.1 nM, the inhibition at 0.1 µM [1] was 97% and the inhibition at 1 µM [1] was 97%. For the same molecule, the activity at 0.1 µM [2, 3] was 22.6%, the activity at 1 µM [2, 4] was 40.6% and the activity at 1 µM [2, 5] was 95.4%.
`O=C(NC1CCN(CC(O)COc2ccc(Cl)c(F)c2)CC1)c1ccc2cc(Cl)ccc2c1` (centres unmarked) [Compound 21, 6-chloro-N-(1-(3-(4-chloro-3-fluorophenoxy)-2-hydroxypropyl)piperidin-4-yl)-2-naphthamide] was tested, and the inhibition at 0.1 µM [1] was 54%, the inhibition at 1 µM [1] was 78% and the activity at 0.1 µM [2, 3] was 70.5%. The activity at 1 µM [2, 4] was 182%.
`O=C(COc1ccc(Cl)cc1)NC1CCN(CC(O)COc2ccc(Cl)cc2)CC1` (centres unmarked) [Compound 5, 2-(4-chlorophenoxy)-N-(1-(3-(4-chlorophenoxy)-2-hydroxypropyl)piperidin-4-yl)acetamide] was tested, and the IC50 [1] was 170 nM, the inhibition at 0.1 µM [1] was 42% and the inhibition at 1 µM [1] was 94%. It also gave an activity at 0.1 µM [2, 3] of 64.9%, an activity at 1 µM [2, 4] of 189% and an activity at 1 µM [2, 5] of 130%.
With `O=C(COc1ccc(Cl)cc1)N[C@H]1CC[C@H](NC(=O)C2CNc3cc(Cl)ccc3O2)CC1` (stereo partly drawn) [Compound 156, trans-6-chloro-N-(4-(2-(4-chlorophenoxy)acetamido)cyclohexyl)-3,4-dihydro-2H-benzo[b][1,4]oxazine-2-carboxamide] the IC50 [1] was 16 nM, the inhibition at 0.1 µM [1] was 94% and the inhibition at 1 µM [1] was 97%. The activity at 0.1 µM [2, 3] was 25.1%, the activity at 1 µM [2, 4] was 200% and the activity at 1 µM [2, 5] was 197%.
In the case of `O=C(COc1ccc(Cl)c(F)c1)NC1CCN(CC(O)COc2ccc(Cl)c(F)c2)CC1` (centres unmarked) [Compound 13, 2-(4-chloro-3-fluorophenoxy)-N-(1-(3-(4-chloro-3-fluorophenoxy)-2-hydroxypropyl)piperidin-4-yl)acetamide], the IC50 [1] is reported as 57.2 nM, the inhibition at 0.1 µM [1] is reported as 57% and the inhibition at 1 µM [1] is reported as 93%. For the same molecule, the activity at 0.1 µM [2, 3] was 49.6%, the activity at 1 µM [2, 4] was 159% and the activity at 1 µM [2, 5] was 94%.
Work on `O=C(COc1ccc(Cl)c(F)c1)NC1CCN(CCCOc2ccc(Cl)c(F)c2)CC1` [Compound 28, 2-(4-chloro-3-fluorophenoxy)-N-(1-(3-(4-chloro-3-fluorophenoxy)propyl)piperidin-4-yl)acetamide] yielded an IC50 [1] of 25.8 nM, an inhibition at 0.1 µM [1] of 88% and an inhibition at 1 µM [1] of 97%. For the same molecule, the activity at 0.1 µM [2, 3] was 38%, the activity at 1 µM [2, 4] was 170% and the activity at 1 µM [2, 5] was 99.3%.
In the case of `O=C(N[C@H]1CC[C@H](NCC(O)COc2ccc(Cl)c(F)c2)CC1)c1ccc2cc(Cl)ccc2n1` (stereo partly drawn) [Compound 30, trans-6-chloro-N-(4-((3-(4-chloro-3-fluorophenoxy)-2-hydroxypropyl)amino)cyclohexyl)quinoline-2-carboxamide], the IC50 [1] is reported as over 3000 nM, the inhibition at 0.1 µM [1] is reported as 35% and the inhibition at 1 µM [1] is reported as 35%. For the same molecule, the activity at 0.1 µM [2, 3] was 23.1%, the activity at 1 µM [2, 4] was 182% and the activity at 1 µM [2, 5] was 206%. For the same molecule, the protein translation ([2]; summary of Table 3) was “increased protein translation” and the “protein synthesis in a cell versus ATF4 translation” value ([2]; under ISR-stressed or non-ISR stressed conditions) was “increase protein synthesis in a cell without full inhibition of ATF4 translation”.
For `O=C(NC1CCN(CC(O)COc2ccc(Cl)c(F)c2)CC1)C1Cc2cc(Cl)ccc2O1` (centres unmarked) [Compound 20, 5-chloro-N-(1-(3-(4-chloro-3-fluorophenoxy)-2-hydroxypropyl)piperidin-4-yl)-2,3-dihydrobenzofuran-2-carboxamide], the inhibition at 0.1 µM [1] was 14%, the inhibition at 1 µM [1] was 64% and the activity at 0.1 µM [2, 3] was 38.6%. For the same molecule, the activity at 1 µM [2, 4] was 93.9%.
With `O=C(N[C@H]1CC[C@H](NCCOc2ccc(Cl)c(F)c2)CC1)c1ccc2cc(Cl)ccc2n1` [Compound 31, trans-6-chloro-N-(4-((2-(4-chloro-3-fluorophenoxy)ethyl)amino)cyclohexyl)quinoline-2-carboxamide] the inhibition at 0.1 µM [1] was 41%, the inhibition at 1 µM [1] was 93% and the activity at 0.1 µM [2, 3] was 25%. It also gave an activity at 1 µM [2, 4] of 288% and an activity at 1 µM [2, 5] of 243%.
In the case of `O=C(COc1ccc(Cl)c(F)c1)N[C@H]1CC[C@H](NC[C@@H](O)COc2ccc(Cl)c(F)c2)CC1` (single isomer, unassigned) [Compound 6, (+)-2-(4-chloro-3-fluorophenoxy)-N-(4-((3-(4-chloro-3-fluorophenoxy)-2-hydroxypropyl)amino)cyclohexyl)acetamide], the IC50 [1] is reported as 82.8 nM, the inhibition at 0.1 µM [1] is reported as 52% and the inhibition at 1 µM [1] is reported as 83%. The activity at 0.1 µM [2, 3] was 60.2%, the activity at 1 µM [2, 4] was 197% and the activity at 1 µM [2, 5] was 195%.
In the case of `O=C(N[C@H]1CC[C@H](NCC(O)COc2ccc(Cl)c(F)c2)CC1)c1cc2cc(Cl)ccc2o1` (single isomer, unassigned; (-)) [Compound 155, (−)-trans-5-chloro-N-(4-((3-(4-chloro-3-fluorophenoxy)-2-hydroxypropyl)amino)cyclohexyl)benzofuran-2-carboxamide], the inhibition at 0.1 µM [1] is reported as 60%, the inhibition at 1 µM [1] is reported as 75% and the activity at 0.1 µM [2, 3] is reported as 68.5%. For the same molecule, the activity at 1 µM [2, 4] was 190% and the activity at 1 µM [2, 5] was 263%.
`O=C(COc1ccc(Cl)cc1)N[C@H]1CC[C@H](N2CC(COc3ccc(Cl)cc3)OC2=O)CC1` (stereo partly drawn) [Compound 159, trans-2-(4-chlorophenoxy)-N-(4-(5-((4-chlorophenoxy)methyl)-2-oxooxazolidin-3-yl)cyclohexyl)acetamide] showed an IC50 [1] of under 100 nM, an inhibition at 0.1 µM [1] of 52% and an inhibition at 1 µM [1] of 84%. For the same molecule, the activity at 0.1 µM [2, 3] was 23.9% and the activity at 1 µM [2, 4] was 79.4%.
For `O=C(NC1CCN(CC(O)COc2ccc(Cl)c(F)c2)CC1)c1cc2cc(Cl)ccc2o1` (centres unmarked) [Compound 29, 5-chloro-N-(1-(3-(4-chloro-3-fluorophenoxy)-2-hydroxypropyl)piperidin-4-yl)benzofuran-2-carboxamide], the IC50 [1] was 51.8 nM, the inhibition at 0.1 µM [1] was 87% and the inhibition at 1 µM [1] was 95%. The activity at 0.1 µM [2, 3] was 48.4%, the activity at 1 µM [2, 4] was 267% and the activity at 1 µM [2, 5] was 186%.
`O=C(COc1ccc(Cl)c(F)c1)N[C@H]1CC[C@H](NC(=O)c2cc3cc(Cl)ccc3o2)CC1` [Compound 17, trans-5-chloro-N-(4-(2-(4-chloro-3-fluorophenoxy)acetamido)cyclohexyl)benzofuran-2-carboxamide] gave an IC50 [1] of 9.52 nM, an inhibition at 0.1 µM [1] of 95% and an inhibition at 1 µM [1] of 98%. The activity at 0.1 µM [2, 3] was 87%, the activity at 1 µM [2, 4] was 172% and the activity at 1 µM [2, 5] was 93.2%.
`O=C(NC1CCN(CCCOc2ccc(Cl)c(F)c2)CC1)c1ccc2cc(Cl)ccc2n1` [Compound 146, 6-chloro-N-(1-(3-(4-chloro-3-fluorophenoxy)propyl)piperidin-4-yl)quinoline-2-carboxamide] showed an IC50 [1] of 49.9 nM, an inhibition at 0.1 µM [1] of 88% and an inhibition at 1 µM [1] of 100%. It also gave an activity at 0.1 µM [2, 3] of 43.4%, an activity at 1 µM [2, 4] of 265% and an activity at 1 µM [2, 5] of 246%.
`O=C(COc1ccc(Cl)c(F)c1)N[C@H]1CC[C@H](NC(=O)c2cc3ccncc3o2)CC1` [Compound 24, trans-N-(4-(2-(4-chloro-3-fluorophenoxy)acetamido)cyclohexyl)furo[2,3-c]pyridine-2-carboxamide] was tested, and the inhibition at 0.1 µM [1] was 18%, the inhibition at 1 µM [1] was 54% and the activity at 0.1 µM [2, 3] was 11.8%. It also gave an activity at 1 µM [2, 4] of 24.3%.
